Data published in US6548042B2, “Bis-phosphonate compounds” (priority 2000, dated 2003).

Assay: Biodistribution of HPLC-purified and nonpurified (crude) compound in nude rats
Format: in vivo, congenitally athymic nude rats (Han rnu/rnu Rowett)
Description: Nude/nude rats with a body weight averaging 60 g were used in the biodistribution experiments. The aim of the study was to compare crude 3h with HPLC-purified 3h. The term “crude compound” refers to the diluted and neutralised labelling reaction mixture described hereinbefore. The compounds were administrated by tail vein injections of 200 μl for each animal, using three animals for each sample. 24 h after injection the animals were killed by a lethal injection and the tissue distribution determined.
Rats. […] At 24 h postinjection the animals were sacrificed, weighed and dissected.
To further evaluate the hydroxybisphosphonate 46a, biodistribution of this compound was obtained in rats. The goal of this experiment was to find whether there was a difference in the properties of the HPLC-purified compound as compared with a nonpurified sample.

Compound: O=P(O)(O)C(O)(Cc1cccc([131I])c1)P(=O)(O)O [46a, 1-hydroxy(m-[^131I and ^125I]-iodophenyl)-ethylidene-1,1-bisphosphonic acid]
- Bone affinity of purified compound versus crude product (24 h): 3 fold
- Femur uptake (HPLC purified, nude/nude rats 60 g, 24 h): 1020 % g dose/g
- Femur to soft tissue ratio (HPLC-purified sample, 24 h): > 45
- Uptake in femur (HPLC-purified sample, 24 h): 16.44±1.96 % ID/g
- Uptake in kidneys (HPLC-purified sample, 24 h): 0.36±0.03 % ID/g
- Uptake in skull (HPLC-purified sample, 24 h): 5.84±0.35 % ID/g
- Uptake in femur expressed as % gram dose per gram tissue (Rowett rats, 60 g, 24 h): 986 (Rowett rats, 60 g, 24 h) % gram dose per gram tissue
- Uptake in stomach (Rowett rats, 60 g, 24 h): 0.05 ± 0.01 % ID/g
- Uptake in the thyroid (Rowett rats, 60 g, 24 h): 0.02 ± 0.01 % injected dose/organ
- Ratio between uptake in femur and kidney (Rowett rats, 60 g, 24 h, HPLC purified, listed as 1): 24 h) and 45.7 (femur/kidney,
- Ratio between uptake in femur and kidney (Rowett rats, 60 g, 24 h, HPLC purified, listed as 3h): above 45
- Femur to kidney ratio (nonpurified sample): 14
- Femur to skull ratio (nonpurified sample): ~7
- Uptake in the thyroid (nonpurified sample): 0.03±0.01 % of the total injected radioactivity
- Uptake in femur (nonpurified sample, 24 h): 5.28±1.10 % ID/g
